Experimental data: patent US20240269105A1, “USE OF SGLT-2 INHIBITORS FOR THE PREVENTION AND/OR TREATMENT OF HYPERTENSION IN NON-HUMAN MAMMALS” (BOEHRINGER INGELHEIM VETMEDICA GMBH, priority 2021, published 2024)

Experiments:
[1] = tested on: cats previously diagnosed with high systolic blood pressure; assay: Clinical field study (Cats): systolic blood pressure; type: in vivo, cat; conditions: cats (n=5-10), 4 weeks of treatment, open label
Method: In a clinical field study, the effect of velagliflozin on systolic blood pressure administered to cats (n=5-10) previously diagnosed with high systolic blood pressure, is evaluated over a period of 1 month. Systolic blood pressure measurements are performed in accordance with the ACVIM consensus statement (Ref. 3). Systolic blood pressure is measured before treatment start and during weekly consecutive visits (4 weeks of treatment). The study is an open label study (unmasked). The data of this field trial confirm an average reduction of systolic blood pressure of about 5-10 mmHg.

[2] = tested on: dogs previously diagnosed with high systolic blood pressure; assay: Clinical field study (Dogs): systolic blood pressure; type: in vivo, dog; conditions: dogs (n=5-10), 4 weeks of treatment, open label
Method: In a clinical field study, the effect of velagliflozin on systolic blood pressure administered to dogs (n=5-10) previously diagnosed with high systolic blood pressure, is evaluated over a period of 1 month. Systolic blood pressure measurements are performed in accordance with the ACVIM consensus statement (Ref. 3). Systolic blood pressure is measured before treatment start and during weekly consecutive visits (4 weeks of treatment). The study is an open label study (unmasked). The data of this field trial confirm an average reduction of systolic blood pressure of about 5-10 mmHg.

[3] = tested on: human patients suffering from diabetes mellitus type II; conditions: baseline to week 12; empagliflozin 10 mg and 25 mg groups vs placebo; N=825; 'up to'; cited from earlier work

SMILES | average reduction of systolic blood pressure [1] | average reduction of systolic blood pressure [2] | placebo-subtracted mean difference of mean 24-hour systolic BP [3]
N#Cc1ccc([C@@H]2O[C@H](CO)[C@@H](O)[C@H](O)[C@H]2O)cc1Cc1ccc(C2CC2)cc1 [velagliflozin, Velagliflozin] | 5-10 mmHg | 5-10 mmHg | 
OC[C@H]1O[C@@H](c2ccc(Cl)c(Cc3ccc(O[C@H]4CCOC4)cc3)c2)[C@H](O)[C@@H](O)[C@@H]1O [empagliflozin, Empagliflozin] |  |  | up to −4.16 mmHg
